{
  "source": "paper PMC8865417",
  "about": "“Receptor Interaction Profiles of 4-Alkoxy-3,5-Dimethoxy-Phenethylamines (Mescaline Derivatives) and Related Amphetamines” (Frontiers in Pharmacology, 2022)",
  "origin": "cited, not measured here",
  "set-up_in_all_cases": "method as in Simmler et al. (2013)",
  "key": {"[1]": {"target": "T1, hSERT (Homo sapiens, UniProt P31645)", "T1 construct": "expressed in transfected cells; host or cells: HEK 293 cells (membrane preparations)", "T1 sequence (P31645 whole entry)": "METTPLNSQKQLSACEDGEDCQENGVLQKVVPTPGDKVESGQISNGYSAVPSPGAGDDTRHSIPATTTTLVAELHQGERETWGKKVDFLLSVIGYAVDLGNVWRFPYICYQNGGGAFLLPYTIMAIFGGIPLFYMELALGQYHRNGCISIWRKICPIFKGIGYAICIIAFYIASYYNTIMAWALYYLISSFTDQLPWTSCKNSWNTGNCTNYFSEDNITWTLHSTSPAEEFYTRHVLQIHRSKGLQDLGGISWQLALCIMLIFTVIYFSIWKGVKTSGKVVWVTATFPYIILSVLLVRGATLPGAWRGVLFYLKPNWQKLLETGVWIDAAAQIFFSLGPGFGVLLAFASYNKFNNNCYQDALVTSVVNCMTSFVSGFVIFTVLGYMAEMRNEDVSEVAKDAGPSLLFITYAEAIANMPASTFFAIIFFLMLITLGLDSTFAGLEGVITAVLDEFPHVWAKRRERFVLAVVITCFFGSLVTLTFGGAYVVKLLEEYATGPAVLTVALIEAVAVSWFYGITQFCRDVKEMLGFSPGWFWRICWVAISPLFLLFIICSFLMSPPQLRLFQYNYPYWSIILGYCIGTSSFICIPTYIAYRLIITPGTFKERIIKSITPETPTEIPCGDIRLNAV", "conditions": "reference substance; ref Simmler et al. (2013); cited from earlier work"}, "[2]": {"target": "T2, dopaminergic hD2 receptor (Homo sapiens, UniProt P14416)", "T2 construct": "expressed in transfected cells; host or cells: HEK 293 cells (membrane preparations)", "T2 sequence (P14416 whole entry)": "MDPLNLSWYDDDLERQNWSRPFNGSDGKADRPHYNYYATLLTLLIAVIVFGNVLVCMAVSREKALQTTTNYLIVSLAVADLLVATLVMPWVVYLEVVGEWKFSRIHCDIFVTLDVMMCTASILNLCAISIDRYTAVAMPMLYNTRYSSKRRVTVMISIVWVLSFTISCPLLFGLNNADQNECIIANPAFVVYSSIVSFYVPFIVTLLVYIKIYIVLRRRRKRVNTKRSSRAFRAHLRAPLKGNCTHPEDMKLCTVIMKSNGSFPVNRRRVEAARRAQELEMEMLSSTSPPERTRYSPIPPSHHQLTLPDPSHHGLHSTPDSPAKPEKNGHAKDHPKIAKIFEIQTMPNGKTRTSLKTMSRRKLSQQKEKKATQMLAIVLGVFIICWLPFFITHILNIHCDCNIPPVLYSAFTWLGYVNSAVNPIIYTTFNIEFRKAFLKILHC", "conditions": "reference substance; ref Simmler et al. (2013); cited from earlier work"}, "[3]": {"target": "T3, rat TAAR1 (Rattus norvegicus, UniProt Q923Y9)", "T3 construct": "expressed in transfected cells; host or cells: HEK 293 cells (membrane preparations)", "T3 sequence (Q923Y9 whole entry)": "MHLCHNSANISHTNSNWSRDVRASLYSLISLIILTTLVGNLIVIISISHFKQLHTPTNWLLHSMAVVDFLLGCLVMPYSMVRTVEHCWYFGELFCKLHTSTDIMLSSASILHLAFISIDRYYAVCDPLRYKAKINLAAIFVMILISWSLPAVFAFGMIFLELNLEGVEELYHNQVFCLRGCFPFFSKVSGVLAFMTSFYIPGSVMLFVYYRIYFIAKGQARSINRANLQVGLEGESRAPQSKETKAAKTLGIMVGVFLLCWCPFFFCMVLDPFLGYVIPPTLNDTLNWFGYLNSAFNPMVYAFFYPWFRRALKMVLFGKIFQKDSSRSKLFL", "conditions": "reference substance; ref Simmler et al. (2013); read-out: rTAAR1 Ki; cited from earlier work"}, "[4]": {"target": "T4, hα1A adrenergic receptor (Homo sapiens, UniProt P35348)", "T4 construct": "expressed in transfected cells; host or cells: Chinese hamster ovary cells (membrane preparations)", "T4 sequence (P35348 1-466)": "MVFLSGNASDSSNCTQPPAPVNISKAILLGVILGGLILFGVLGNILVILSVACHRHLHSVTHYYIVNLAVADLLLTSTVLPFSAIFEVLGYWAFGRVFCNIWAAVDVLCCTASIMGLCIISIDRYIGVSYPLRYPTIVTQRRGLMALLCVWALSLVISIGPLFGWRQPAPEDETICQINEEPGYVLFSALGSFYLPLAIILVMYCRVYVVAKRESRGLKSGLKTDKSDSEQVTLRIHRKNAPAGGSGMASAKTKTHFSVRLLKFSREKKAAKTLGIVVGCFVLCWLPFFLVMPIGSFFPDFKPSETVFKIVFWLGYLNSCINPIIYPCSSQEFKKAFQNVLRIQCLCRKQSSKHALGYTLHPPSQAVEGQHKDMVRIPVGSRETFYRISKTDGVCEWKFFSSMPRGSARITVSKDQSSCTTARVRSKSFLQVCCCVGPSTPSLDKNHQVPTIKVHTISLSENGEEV", "conditions": "reference substance; ref Simmler et al. (2013); cited from earlier work"}, "[5]": {"target": "T5, mouse TAAR1 (Mus musculus, UniProt Q923Y8)", "T5 construct": "expressed in transfected cells; host or cells: HEK 293 cells (membrane preparations)", "T5 sequence (Q923Y8 whole entry)": "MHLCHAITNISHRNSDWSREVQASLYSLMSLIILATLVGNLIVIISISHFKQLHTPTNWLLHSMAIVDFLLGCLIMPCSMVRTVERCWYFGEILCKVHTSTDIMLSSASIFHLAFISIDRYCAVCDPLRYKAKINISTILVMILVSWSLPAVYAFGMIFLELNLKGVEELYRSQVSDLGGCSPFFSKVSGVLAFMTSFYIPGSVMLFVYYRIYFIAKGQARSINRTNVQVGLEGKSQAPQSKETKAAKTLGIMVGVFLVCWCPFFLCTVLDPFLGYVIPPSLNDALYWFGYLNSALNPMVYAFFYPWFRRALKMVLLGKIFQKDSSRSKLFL", "conditions": "reference substance; ref Simmler et al. (2013); read-out: mTAAR1 Ki; cited from earlier work"}, "[6]": {"target": "T6, hDAT (Homo sapiens, UniProt Q01959)", "T6 construct": "expressed in transfected cells; host or cells: HEK 293 cells (membrane preparations)", "T6 sequence (Q01959 whole entry)": "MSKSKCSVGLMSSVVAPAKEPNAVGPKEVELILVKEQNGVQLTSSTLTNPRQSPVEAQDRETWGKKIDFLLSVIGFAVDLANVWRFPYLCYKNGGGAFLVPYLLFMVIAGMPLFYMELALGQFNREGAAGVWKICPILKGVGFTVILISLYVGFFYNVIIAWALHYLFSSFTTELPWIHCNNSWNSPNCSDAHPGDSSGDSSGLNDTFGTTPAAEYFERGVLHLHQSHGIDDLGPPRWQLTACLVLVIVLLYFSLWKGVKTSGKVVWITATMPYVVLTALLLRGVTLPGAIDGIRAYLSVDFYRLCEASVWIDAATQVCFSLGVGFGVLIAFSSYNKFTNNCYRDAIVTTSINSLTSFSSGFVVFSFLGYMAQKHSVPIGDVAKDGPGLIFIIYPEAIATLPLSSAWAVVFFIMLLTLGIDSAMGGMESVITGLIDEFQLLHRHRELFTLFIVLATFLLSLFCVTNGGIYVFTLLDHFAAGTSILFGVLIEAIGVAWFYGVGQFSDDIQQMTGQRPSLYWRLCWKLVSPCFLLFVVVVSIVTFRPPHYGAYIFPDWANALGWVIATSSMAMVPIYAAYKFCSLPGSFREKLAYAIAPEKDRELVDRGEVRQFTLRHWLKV", "conditions": "reference substance; ref Simmler et al. (2013); cited from earlier work"}, "[7]": {"target": "T7, hα2A adrenergic receptor (Homo sapiens, UniProt P08913)", "T7 construct": "expressed in transfected cells; host or cells: Chinese hamster lung cells (membrane preparations)", "T7 sequence (P08913 1-465)": "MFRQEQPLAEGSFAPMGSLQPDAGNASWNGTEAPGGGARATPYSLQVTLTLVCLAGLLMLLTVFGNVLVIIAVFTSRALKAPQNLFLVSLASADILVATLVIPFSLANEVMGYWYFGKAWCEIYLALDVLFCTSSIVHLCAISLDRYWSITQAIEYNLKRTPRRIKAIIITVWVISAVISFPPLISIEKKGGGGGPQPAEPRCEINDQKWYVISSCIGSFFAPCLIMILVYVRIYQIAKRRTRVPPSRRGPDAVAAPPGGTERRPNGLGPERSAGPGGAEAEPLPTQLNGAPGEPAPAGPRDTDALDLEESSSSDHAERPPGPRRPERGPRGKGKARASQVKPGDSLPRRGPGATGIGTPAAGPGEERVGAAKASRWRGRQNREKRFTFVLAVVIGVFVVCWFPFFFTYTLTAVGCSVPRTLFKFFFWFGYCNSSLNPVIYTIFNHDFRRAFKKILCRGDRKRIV", "conditions": "reference substance; ref Simmler et al. (2013); cited from earlier work"}, "[8]": {"target": "T8, hNET (Homo sapiens, UniProt P23975)", "T8 construct": "expressed in transfected cells; host or cells: HEK 293 cells (membrane preparations)", "T8 sequence (P23975 whole entry)": "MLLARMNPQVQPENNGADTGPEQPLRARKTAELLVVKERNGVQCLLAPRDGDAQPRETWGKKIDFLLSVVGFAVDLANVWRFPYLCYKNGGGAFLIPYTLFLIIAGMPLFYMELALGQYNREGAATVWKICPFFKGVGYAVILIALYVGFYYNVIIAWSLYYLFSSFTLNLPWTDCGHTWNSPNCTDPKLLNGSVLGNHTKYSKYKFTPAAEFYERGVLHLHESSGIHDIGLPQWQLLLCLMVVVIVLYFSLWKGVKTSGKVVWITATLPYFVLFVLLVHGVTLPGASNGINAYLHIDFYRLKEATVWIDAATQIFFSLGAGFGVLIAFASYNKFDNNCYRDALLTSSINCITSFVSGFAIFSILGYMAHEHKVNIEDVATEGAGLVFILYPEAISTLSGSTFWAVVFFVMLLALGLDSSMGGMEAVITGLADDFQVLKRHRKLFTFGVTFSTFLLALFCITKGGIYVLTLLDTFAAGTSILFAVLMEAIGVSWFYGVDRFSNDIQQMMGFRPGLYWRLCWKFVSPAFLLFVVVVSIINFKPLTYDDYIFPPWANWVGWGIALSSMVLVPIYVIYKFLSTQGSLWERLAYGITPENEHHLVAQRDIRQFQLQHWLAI", "conditions": "reference substance; ref Simmler et al. (2013); cited from earlier work"}},
  "data": [
    {"molecule": "CNC(C)Cc1ccc2c(c1)OCO2", "note": "(centres unmarked) [MDMA]", "values": [
      {"measurement": "Ki", "setting": "[1]", "value": "> 7.5", "unit": "µM"},
      {"measurement": "Ki", "setting": "[2]", "value": "> 6.3", "unit": "µM"},
      {"measurement": "Ki", "setting": "[3]", "value": "0.37 ± 0.12", "unit": "µM"},
      {"measurement": "Ki", "setting": "[4]", "value": "> 8.7", "unit": "µM"},
      {"measurement": "Ki", "setting": "[5]", "value": 2.4, "unit": "µM"},
      {"measurement": "Ki", "setting": "[6]", "value": "> 8.5", "unit": "µM"},
      {"measurement": "Ki", "setting": "[7]", "value": "> 5.1", "unit": "µM"},
      {"measurement": "Ki", "setting": "[8]", "value": "> 9.7", "unit": "µM"}
    ]}
  ]
}
